Results taken from US20060205751A1, “Novel compounds” (SmithKline Beecham Corporation, priority 2003, published 2006).

- melting point: 79.5 to 80.5 °C
SMILES: O=C(O)c1cccc(-c2cc3cc(Cl)c(Cl)cc3[nH]2)c1 [Example 1, 3-(5,6-Dichloro-1H-indol-2-yl)-benzoic acid]
